Assays:
[1] = test system: NADH-dehydrogenase complex; conditions: interferes with redox function of NADH-dehydrogenase complex, thus mitochondrial oxidations; cited from earlier work
[2] = adhesion to intestinal mucosa / absorption; assay type: in vivo; conditions: rhein found to adhere, should thus be relatively poorly absorbed
[3] = cited from earlier work
[4] = human ingestion of diacetylrhein for 15 months, side effects; assay type: in vivo; conditions: about 100 mg per day
Description: (§1) A human patient having severe osteoarthritis (established by X-ray, CSF and rheumatoid factor assessments) across the lower back was treated with diacetylrhein. The patient had greatly restricted torsal rotation and a notable pain in their back and legs after remaining seated for 30 to 60 minutes. The patient was treated by ingesting two daily doses of 50 mg of diacetylrhein.

[5] = clinical trials in MS and ALS patients; assay type: in vivo, human; conditions: patients suffering from MS and ALS
Text: Clinical trials are being carried out in which patients suffering from MS and ALS are being treated with diacetylrhein.

[6] = acute toxicity trial in mice; assay type: in vivo; conditions: 26 mice; doses up to about 3000 mg per kg per day
Description: In an acute toxicity trial, 1,8-diacetoxy-3-carboxyanthraquinone (diacetylrhein) was administered to 26 mice in doses of up to about 3000 mg per kg per day.

[7] = treatment of an ALS patient; assay type: in vivo, human; conditions: one patient, fairly advanced stage; six months; daily doses increasing up to 150 mg
Description: A human patient suffering from ALS in a fairly advanced stage was treated with diacetylrhein over a period of six months. The diacetylrhein was ingested in daily doses increasing up to 150 mg daily.

[8] = clinical tests on arthritis patients; assay type: in vivo, human
Text: Clinical tests have been carried out on arthritis patients with extremely encouraging results.

[9] = treatment of patients with rheumatoid arthritis of the hands; assay type: in vivo, human; conditions: three cases; 50 mg twice daily for between five and ten days
Description: In three cases, patients with rheumatoid arthritis of the hands, having swollen fingers and painful joints, were treated with 50 mg of diacetylrhein, twice daily for between five and ten days.

treatment of MS patients = assay type: in vivo; conditions: four human patients; two daily doses of 50 mg, ingested
Description: Four human patients suffering from MS were treated with diacetylrhein. They were treated by ingesting two daily doses of 50 mg diacetylrhein.

[10] = treatment of osteoarthritis patients; assay type: in vivo, human; conditions: one patient, severe osteoarthritis across lower back
Description: as §1

[11] = side effects in all clinical trials to date; assay type: in vivo, human
Text: In all clinical trials carried out to date with diacetylrhein side effects have been unsignificant.

[12] = two daily doses of 50 mg, ingested

SMILES	inhibition of NADH-linked oxidation [1]	adhesion to the intestinal mucosa [2]	toxicity ([3]; oral ingestion)	side-effects on long-term intake ([3]; taken for long periods of time, in the dosage required)	untoward effects [4]	results of clinical trials [5]	deaths [6]	deterioration: unsteadiness of gait and weakness of voice [7]	stabilisation of condition [7]	failure to respond to treatment ([8]; arthritis patients)	need for Charnley Hip Operation ([8]; patients with arthritis of the hip)	finger thickness (swelling) [9]	pain in the joints [9]	pain and limb unsteadiness (treatment of MS patients)	condition with continued treatment ([10]; continued treatment)	onset of effect [10, 12]	pain, torsal rotation and early morning stiffness [10, 12]	side effects ([11]; all clinical trials carried out to date)	only side effect encountered ([11]; all clinical trials to date, eliminated by reducing the dosage)
O=C(O)c1cc(O)c2c(c1)C(=O)c1cccc(O)c1C2=O [Rhein, 1,8-dihydroxyanthra-quinone-3-carboxylic acid]	inhibitor of NADH-linked oxidation	adheres strongly to the intestinal mucosa	relatively non-toxic	without any apparent side-effects	–	–	–	–	–	–	–	–	–	–	–	–	–	–	–
CC(=O)Oc1cccc2c1C(=O)c1c(OC(C)=O)cc(C(=O)O)cc1C2=O [diacetylrhein, 1,8-diacetoxy-3-carboxyanthraquinone]	–	–	–	–	No untoward effects were noted	most encouraging	None of the mice died	substantially inhibited	substantially stabilised	There has almost never been a failure to respond to this treatment	sufficient progress for this to be unnecessary	The fingers rapidly returned to normal thickness	the pain in the joints disappeared and was absent even when these were submitted to pressure	The pain and a large part of the limb unsteadiness disappeared within seven to ten days of initiating treatment	maintained their improved condition	An effect was noted on the fourth and fifth days	became pain free with restored torsal rotation and without early morning stiffness	unsignificant	some diarrhoea

— patent US4346103A, “Treatment for arthritis and substances for use in such treatment” (priority 1976, dated 1982)
